Measurements published in article PMC7365463, “Oxfendazole mediates macrofilaricidal efficacy against the filarial nematode Litomosoides sigmodontis in vivo and inhibits Onchocerca spec. motility in vitro” (PLoS Neglected Tropical Diseases, 2020).
Read-outs that look alike come from different tables or passages of the source.

Tests used:
[1] = system: Onchocerca lienalis microfilariae; assay: O. lienalis microfilariae 5-day motility assay; details: 120 h
[2] = system: Onchocerca gutturosa adult male worms; assay: O. gutturosa adult worm MTT/formazan viability assay; details: 120 h
[3] = system: Onchocerca gutturosa adult male worms; assay: O. gutturosa adult male worm 5-day motility assay; details: for activity against adult O. gutturosa: metabolites of oxfendazole, less potent compared to oxfendazole
Brugia pahangi [4] = system: Brugia pahangi; design: method as in Reddy 1983 (Ref. 15); details: L3 (SC), Mastomys natalensis, patent phase, necropsy 43 days p.t., ref Reddy 1983 (Ref. 15), cited from earlier work
Brugia pahangi [5] = details: jirds, cited from earlier work
Brugia pahangi [6] = details: L3, cats, patent phase, necropsy 42 days p.t., ref Denham 1980 (Ref. 5), cited from earlier work
Brugia pahangi [7] = system: Brugia pahangi; design: method as in Devaney 1985 (Ref. 8); details: 50L3, balb/c, SC 10 or 50 mg/kg 5 cons. days, 4 days p.i., necropsy 3-4 weeks p.t.; ref Devaney 1985 (Ref. 8); cited from earlier work
Litomosoides sigmodontis [8] = system: Litomosoides sigmodontis; design: method as in Reddy 1983 (Ref. 15); details: L3 (mite), Mastomys natalensis, patent phase, necropsy 43 days p.t., ref Reddy 1983 (Ref. 15), cited from earlier work
Breinlia booliati = system: Breinlia booliati; design: method as in Mak 1981 (Ref. 7); details: 100L3 (SC), rats, SC 10mg/kg 5 cons. days, patent phase, necropsy 4 weeks p.t.; ref Mak 1981 (Ref. 7); cited from earlier work
Litomosoides sigmodontis [9] = system: Litomosoides sigmodontis; design: method as in Shibuya 1979 (Ref. 12); details: cotton rat, ref Shibuya 1979 (Ref. 12), cited from earlier work
[10] = system: L. sigmodontis microfilariae; assay: L. sigmodontis microfilariae-injected naïve mice; type: in vivo, Litomosoides sigmodontis; details: single intraperitoneal injection 5 mg/kg
Experimental: To investigate the in vivo efficacy of oxfendazole on microfilariae, microfilariae were isolated from peripheral blood of L. sigmodontis-infected cotton rats according to Chandrashekar et al. (1984) using a sucrose percoll gradient. 100,000 microfilariae were injected into the tail vein of naïve mice as previously described. Microfilariae-injected mice were treated with a commercial formulation of oxfendazole (Dolthene) twice daily with 2 x 12.5 mg/kg per os. As a positive control, additional mice were treated with a single intraperitoneal dose of ivermectin (5 mg/kg) in DMSO/PEG400/H20dest with a ratio of 1:7:2 according to Halliday et al.. Control animals received no treatment.

## Cl.Cl.NCCS[As](SCCN)c1ccc(Nc2nc(N)nc(N)n2)cc1 [Immiticide, melarsomine dihydrochloride]
[1]; concentrations equal or above 3.1·10^−6 M
  effect on microfilariae motility: completely inhibited microfilariae motility
[2]; 1.25 x 10^-5 M
  MTT Reduction (%): 91%
[2]; 1.9 x 10^-7 M
  MTT Reduction (%): 51%
[2]; 3.1 x 10^-6 M
  MTT Reduction (%): 94%
[2]; 7.8 x 10^-7 M
  MTT Reduction (%): 79%
[3]; 1.25 x 10^-5 M, 48 h
  Motility Reduction (%): 100%
[3]; 1.25 x 10^-5 M, 72 h
  Motility Reduction (%): 100%
[3]; 1.25 x 10^-5 M, 96 h
  Motility Reduction (%): 100%
[3]; 1.25 x 10^-5 M, 120 h
  Motility Reduction (%): 100%
[3]; 1.9 x 10^-7 M, 24 h
  Motility Reduction (%): 4%
[3]; 1.9 x 10^-7 M, 48 h
  Motility Reduction (%): 9%
[3]; 1.9 x 10^-7 M, 72 h
  Motility Reduction (%): 33%
[3]; 1.9 x 10^-7 M, 96 h
  Motility Reduction (%): 44%
[3]; 1.9 x 10^-7 M, 120 h
  Motility Reduction (%): 44%
[3]; 3.1 x 10^-6 M, 48 h
  Motility Reduction (%): 100%
[3]; 3.1 x 10^-6 M, 72 h
  Motility Reduction (%): 100%
[3]; 3.1 x 10^-6 M, 96 h
  Motility Reduction (%): 100%
[3]; 3.1 x 10^-6 M, 120 h
  Motility Reduction (%): 100%
[3]; 7.8 x 10^-7 M, 24 h
  Motility Reduction (%): 49%
[3]; 7.8 x 10^-7 M, 48 h
  Motility Reduction (%): 74%
[3]; 7.8 x 10^-7 M, 72 h
  Motility Reduction (%): 93%
[3]; 7.8 x 10^-7 M, 120 h
  Motility Reduction (%): 100%

## CCCSc1ccc2nc(NC(=O)OC)[nH]c2c1 [albendazole]
[1]
  activity against microfilariae compared to oxfendazole: even less active
Brugia pahangi [4]; SC 100mg/kg 5 cons. days
  Reduction of worm burden: 100%
Brugia pahangi [4]; per os 150mg/kg 5 cons. days
  Reduction of worm burden: 50%
Brugia pahangi [5]; 15Ad (IP), SC 50mg/kg 5 cons. days, necropsy 4-5 weeks p.t., ref Denham 1980 (Ref. 5)
  Reduction of worm burden: 100%
Brugia pahangi [5]; 15Ad (IP), SC 25-12.5mg/kg 5 cons. days, necropsy 4-5 weeks p.t., ref Denham 1980 (Ref. 5)
  Reduction of worm burden: 80-90%
Brugia pahangi [5]; 15Ad (IP), SC 50-25mg/kg 5 cons. days, 4 days p.i., necropsy 5 weeks p.t., ref Surin 1990 (Ref. 11)
  Reduction of worm burden: 100%
Brugia pahangi [5]; 15Ad (IP), SC <6,25mg/kg 5 cons. days, necropsy 4-5 weeks p.t., ref Denham 1980 (Ref. 5)
  Reduction of worm burden: <30%
Brugia pahangi [5]; 50L3 (IP), SC 50-25mg/kg 5 cons. days, 70 days p.i., necropsy 5 weeks p.t., ref Surin 1990 (Ref. 11)
  Reduction of worm burden: 90%
Brugia pahangi [6]; SC 25mg/kg 5 cons. days
  Reduction of worm burden: 50%
Brugia pahangi [6]; SC 50mg/kg 5 cons. days
  Reduction of worm burden: 100%
Brugia pahangi [6]; SC 100mg/kg 5 cons. days
  Reduction of worm burden: 100%
[2]; 1.25 x 10^-5 M
  MTT Reduction (%): 28%
[2]; 3.1 x 10^-6 M
  MTT Reduction (%): 19%
[2]; 5.0 x 10^-5 M
  MTT Reduction (%): 47%
[2]; 7.8 x 10^-7 M
  MTT Reduction (%): 18%
Brugia pahangi [7]
  Reduction of worm burden: 100%
[3]; 1.25 x 10^-5 M, 24 h
  Motility Reduction (%): 10%
[3]; 1.25 x 10^-5 M, 48 h
  Motility Reduction (%): 12%
[3]; 1.25 x 10^-5 M, 72 h
  Motility Reduction (%): 27%
[3]; 1.25 x 10^-5 M, 96 h
  Motility Reduction (%): 38%
[3]; 1.25 x 10^-5 M, 120 h
  Motility Reduction (%): 40%
[3]; 3.1 x 10^-6 M, 24 h
  Motility Reduction (%): 10%
[3]; 3.1 x 10^-6 M, 48 h
  Motility Reduction (%): 5%
[3]; 3.1 x 10^-6 M, 72 h
  Motility Reduction (%): 16%
[3]; 3.1 x 10^-6 M, 96 h
  Motility Reduction (%): 26%
[3]; 3.1 x 10^-6 M, 120 h
  Motility Reduction (%): 40%
[3]; 5.0 x 10^-5 M, 24 h
  Motility Reduction (%): 10%
[3]; 5.0 x 10^-5 M, 48 h
  Motility Reduction (%): 12%
[3]; 5.0 x 10^-5 M, 72 h
  Motility Reduction (%): 29%
[3]; 5.0 x 10^-5 M, 96 h
  Motility Reduction (%): 40%
[3]; 5.0 x 10^-5 M, 120 h
  Motility Reduction (%): 47%
[3]; 7.8 x 10^-7 M, 24 h
  Motility Reduction (%): 10%
[3]; 7.8 x 10^-7 M, 48 h
  Motility Reduction (%): 9%
[3]; 7.8 x 10^-7 M, 72 h
  Motility Reduction (%): 13%
[3]; 7.8 x 10^-7 M, 96 h
  Motility Reduction (%): 33%
[3]; 7.8 x 10^-7 M, 120 h
  Motility Reduction (%): 33%
Litomosoides sigmodontis [8]; SC 100mg/kg 5 cons. days
  Reduction of worm burden: 100%
Litomosoides sigmodontis [8]; per os 150mg/kg 5 cons. days
  Reduction of worm burden: 0%

## COC(=O)Nc1nc2ccc(S(=O)(=O)c3ccccc3)cc2[nH]1 [fenbendazole sulfone]
[3]
  activity against adult O. gutturosa: active

## COC(=O)Nc1nc2ccc(Sc3ccccc3)cc2[nH]1 [fenbendazole]
[3]
  activity against adult O. gutturosa: active

## COC(=O)Nc1nc2ccc(C(=O)c3ccccc3)cc2[nH]1 [meb, mebendazole]
Breinlia booliati
  Reduction of worm burden: 83%
Litomosoides sigmodontis [9]; IP 1mg/kg 3 cons.days, patent phase, necropsy 4 weeks p.t.
  Reduction of worm burden: 50%
Litomosoides sigmodontis [9]; IP 10mg/kg 3 cons.days, patent phase, necropsy 4 weeks p.t.
  Reduction of worm burden: 100%
Litomosoides sigmodontis [9]; IP 100mg/kg x1, patent phase, necropsy 4 weeks p.t.
  Reduction of worm burden: 100%
Litomosoides sigmodontis [9]; IT 0.1mg/kg 3 cons.days, patent phase, necropsy 5 weeks p.t.
  Reduction of worm burden: 0%
Litomosoides sigmodontis [9]; IT 1mg/kg 3 cons.days, patent phase, necropsy 5 weeks p.t.
  Reduction of worm burden: 100%
Litomosoides sigmodontis [9]; IT 10mg/kg 3 cons.days, patent phase, necropsy 3 weeks p.t.
  Reduction of worm burden: 20%
Litomosoides sigmodontis [9]; IT 10mg/kg 3 cons.days, patent phase, necropsy 5 weeks p.t.
  Reduction of worm burden: 100%
Litomosoides sigmodontis [9]; IT 10mg/kg 4 cons.days, patent phase, necropsy 4 weeks p.t.
  Reduction of worm burden: 0%
Litomosoides sigmodontis [9]; IT 25mg/kg x1, patent phase, necropsy 5 weeks p.t.
  Reduction of worm burden: 75%
Litomosoides sigmodontis [9]; IT 100mg/kg x1, patent phase, necropsy 5 weeks p.t.
  Reduction of worm burden: 85%
Brugia pahangi [4]; SC 100mg/kg 5 cons. days
  Reduction of worm burden: 100%
Brugia pahangi [4]; per os 150mg/kg 5 cons. days
  Reduction of worm burden: 0%
Brugia pahangi [5]; 15Ad (IP), SC 25-12,5mg/kg 5 cons. days, 4 days p.i., necropsy 5 weeks p.t., ref Surin 1990 (Ref. 11)
  Reduction of worm burden: 100%
Brugia pahangi [5]; 50L3 (IP), SC 25mg/kg 5 cons. days, 70 days p.i., necropsy 5 weeks p.t., ref Surin 1990 (Ref. 11)
  Reduction of worm burden: 97%
Brugia pahangi [5]; 50L3 (IP), SC 12,5mg/kg 5 cons. days, 70 days p.i., necropsy 5 weeks p.t., ref Surin 1990 (Ref. 11)
  Reduction of worm burden: 78.5%
Brugia pahangi [5]; 100L3 (IP), SC 50mg/kg 5 cons.days, 3 months p.i., necropsy 15 days p.t., ref Denham 1978 (Ref. 3)
  Reduction of worm burden: 70%
Brugia pahangi [5]; 100L3 (IP), SC 50mg/kg 5 cons.days, 3 months p.i., necropsy 20 days p.t., ref Denham 1978 (Ref. 3)
  Reduction of worm burden: 100%
Brugia pahangi [5]; 100L3 (IP), SC 50mg/kg 5 cons.days, 3 months p.i., necropsy 30 days p.t., ref Denham 1978 (Ref. 3)
  Reduction of worm burden: 100%
Litomosoides sigmodontis [8]; SC 100mg/kg 5 cons. days
  Reduction of worm burden: 100%
Litomosoides sigmodontis [8]; per os 150mg/kg 5 cons. days
  Reduction of worm burden: 70%

## ivermectin
[10]; by 6 h after treatment
  microfilaremia: statistically significant reduction of microfilaremia
[10]; from day four after treatment until end of experiment
  microfilaremia: microfilariae negative
